pIC50: −log10 of the molar value.
Columns and labels:
[1] = Lipophilicity, logD of compound in octanol/aqueous buffer at pH 7.4 incubated for 2 hrs by shake flask method; format: physicochemical; conditions: for logD at 2 h: octanol/aqueous buffer, pH 7.4
[2] = Intrinsic clearance in human liver microsome at 1 uM incubated for 30 mins in presence of NADPH by LC-MS/MS analysis; format: ADME, microsomes; conditions: for microsomal CLint at 1 µM: liver microsomes, read-out: CLH
[3] = biological target: E3 ubiquitin-protein ligase CBL-B (Homo sapiens, UniProt Q13191); assay: Inhibition of Cbl-b (unknown origin) by TR-FRET assay
Sequence of E3 ubiquitin-protein ligase CBL-B (Q13191 whole entry): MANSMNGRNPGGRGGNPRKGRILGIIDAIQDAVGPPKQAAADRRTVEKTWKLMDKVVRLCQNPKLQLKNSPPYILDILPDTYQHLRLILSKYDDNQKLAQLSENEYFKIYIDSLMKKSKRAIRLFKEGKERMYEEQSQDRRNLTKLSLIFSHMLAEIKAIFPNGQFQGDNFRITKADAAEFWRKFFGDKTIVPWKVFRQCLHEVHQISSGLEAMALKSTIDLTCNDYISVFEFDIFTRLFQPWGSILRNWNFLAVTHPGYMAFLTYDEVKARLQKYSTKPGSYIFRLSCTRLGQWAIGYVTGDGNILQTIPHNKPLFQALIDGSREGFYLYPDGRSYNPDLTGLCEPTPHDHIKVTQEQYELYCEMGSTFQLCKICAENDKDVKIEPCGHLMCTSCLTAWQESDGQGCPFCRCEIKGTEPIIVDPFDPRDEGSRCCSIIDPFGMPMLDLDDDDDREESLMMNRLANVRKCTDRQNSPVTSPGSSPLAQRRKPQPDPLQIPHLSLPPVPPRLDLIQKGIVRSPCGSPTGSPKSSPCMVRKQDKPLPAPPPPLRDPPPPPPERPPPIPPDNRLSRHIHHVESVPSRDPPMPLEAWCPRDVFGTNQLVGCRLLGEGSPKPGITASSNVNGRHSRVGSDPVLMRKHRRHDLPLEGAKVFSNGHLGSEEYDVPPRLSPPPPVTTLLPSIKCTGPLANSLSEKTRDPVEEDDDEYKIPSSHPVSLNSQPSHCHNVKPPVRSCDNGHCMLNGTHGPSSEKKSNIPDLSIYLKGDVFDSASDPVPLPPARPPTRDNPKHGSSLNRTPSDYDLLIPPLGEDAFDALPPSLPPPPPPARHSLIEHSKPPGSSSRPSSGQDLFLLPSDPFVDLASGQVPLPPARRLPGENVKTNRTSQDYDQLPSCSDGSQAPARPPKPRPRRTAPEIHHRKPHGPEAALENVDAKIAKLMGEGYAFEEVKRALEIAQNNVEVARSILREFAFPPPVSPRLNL

Row | SMILES | logD at 2 h [1] | microsomal CLint at 1 µM [2] [µL/min/mg] | pIC50 [3] | logD ([1]; octanol/water, pH 7.4, 2 h, 2 h) | CLH ([2]; microsomes, 0.5 h, 1 µM) [µL/min/mg]
1 | C[C@H]1CCCN(Cc2cc3c(c(C(F)(F)F)c2)CN(c2cccc([C@]4(c5nncn5C)C[C@@H](C)C4)c2)C3=O)C1 | 4 | 130 | – | – | –
2 | O=C1NCC[C@@](c2cccc(-c3cc(C(F)(F)F)c[nH]c3=O)c2)(C2CC2)O1 | 2.1 | 35 | 5.09 | – | –
3 | C[C@H]1CCCN(Cc2cc(C(F)(F)F)c3nn(-c4cccc([C@@]5(C)CCNC(=O)C5)c4)c(=O)n3c2)C1 | 3.4 | 230 | 4.43 | – | –
4 | C[C@H]1CCCN(Cc2cc(C(F)(F)F)c3nn(-c4cccc([C@@]5(C6CC6)CCNC(=O)O5)c4)c(=O)n3c2)C1 | 3.8 | > 300 | 5.11 | – | –
5 | CC[C@]1(c2cccc(NC(=O)c3cc(C)nc(C4CC4)n3)c2)CCNC(=O)O1 | 2.9 | 54 | < 4.00 | – | –
6 | CC1CC(c2cccc(-n3nc4c(C(F)(F)F)cc(CN5CCC[C@H](C)C5)cn4c3=O)c2)(n2cccn2)C1 (some centres not stated) | 5.3 | > 300 | < 5.00 | – | –
7 | Cc1cc(C(=O)Nc2cccc([C@]3(C)CCNC(=O)C3)c2)nc(C2CC2)n1 | 2.7 | 34 | 4.55 | – | –
8 | Cc1cc(C(=O)Nc2cccc([C@@]3(C)CCNC(=O)C3)c2)nc(C2CC2)n1 | 2.7 | 23 | 4.48 | – | –
9 | Cc1cc(C(=O)Nc2cccc([C@@]3(C4CC4)CCNC(=O)O3)c2)nc(C2CC2)n1 | 3 | 61 | < 4.00 | – | –
10 | Cc1cc(C(=O)Nc2cccc([C@@]3(C)CCNC(=O)O3)c2)nc(C2CC2)n1 | 2.4 | 7.7 | < 4.00 | – | –
11 | Cc1cc(C(=O)Nc2cccc(C3(C)CCNC(=O)N3C)c2)nc(C2CC2)n1 (racemic) | 2.7 | 75 | < 4.00 | – | –
12 | Cc1cc(C(=O)Nc2cccc(C3(C)CCNC(=O)N3)c2)nc(C2CC2)n1 (racemic) | 2.4 | 6.6 | < 4.00 | – | –
13 | Cc1cc(C(=O)Nc2cccc(C3(C)CNC(=O)O3)c2)nc(C2CC2)n1 (single isomer, unassigned; 14) | 2.7 | 16 | < 4.00 | – | –
14 | Cc1cc(C(=O)Nc2cccc(C3(C)CNC(=O)O3)c2)nc(C2CC2)n1 (single isomer, unassigned; 15) | – | – | < 4.00 | 2.6 | 10

More lines, in order of rising pIC50 [3], values ahead:

Row | logD at 2 h [1] | microsomal CLint at 1 µM [2] [µL/min/mg] | pIC50 [3] | logD ([1]; octanol/water, pH 7.4, 2 h, 2 h) | CLH ([2]; microsomes, 0.5 h, 1 µM) [µL/min/mg] | SMILES
15 | 3.2 | > 300 | 5.18 | – | – | C[C@H]1CCCN(Cc2cc(C(F)(F)F)c3nn(-c4cccc(C5(C)CC(=O)NC(=O)C5)c4)c(=O)n3c2)C1
16 | 4.3 | > 300 | 5.19 | – | – | CNC(=O)[C@]1(c2cccc(-n3nc4c(C(F)(F)F)cc(CN5CCC[C@H](C)C5)cn4c3=O)c2)C[C@H](C)C1
17 | 2.5 | 5.9 | 5.32 | – | – | Cc1cc(C(=O)Nc2cccc([C@]3(C)CCNC(=O)O3)c2)nc(C2CC2)n1
18 | 4.9 | > 300 | 5.68 | – | – | C[C@H]1CCCN(Cc2cc(C(F)(F)F)c3nn(-c4cccc([C@]5(C(=O)N(C)C)C[C@@H](C)C5)c4)c(=O)n3c2)C1
19 | 3 | 27 | 5.85 | – | – | CC[C@@]1(c2cccc(NC(=O)c3cc(C)nc(C4CC4)n3)c2)CCNC(=O)O1
20 | 3.5 | 170 | 5.92 | – | – | C[C@H]1CCCN(Cc2cc(C(F)(F)F)c3nn(-c4cccc([C@]5(C)CCNC(=O)C5)c4)c(=O)n3c2)C1
21 | 2.7 | 48 | 6.64 | – | – | Cn1cnnc1[C@]1(c2cccc(-n3nc4c(C(F)(F)F)cccn4c3=O)c2)C[C@H](C)C1
22 | 3 | 25 | 6.77 | – | – | Cc1cc(C(=O)Nc2cccc([C@]3(C4CC4)CCNC(=O)O3)c2)nc(C2CC2)n1
23 | 3.2 | 35 | 6.80 | – | – | Cc1cc(C(=O)Nc2cccc([C@]3(c4nncn4C)C[C@@H](C)C3)c2)nc(C2CC2)n1
24 | 2.2 | 18 | 7.04 | – | – | O=C1NCC[C@](c2cccc(-c3cc(C(F)(F)F)c[nH]c3=O)c2)(C2CC2)O1
25 | 3.9 | 160 | 7.96 | – | – | C[C@H]1CCCN(Cc2cc(C(F)(F)F)c3nn(-c4cccc([C@]5(c6nncn6C)C[C@@H](C)C5)c4)c(=O)n3c2)C1
26 | 3.7 | 260 | 8.15 | – | – | C[C@H]1CCCN(Cc2cc(C(F)(F)F)c3nn(-c4cccc([C@]5(C6CC6)CCNC(=O)O5)c4)c(=O)n3c2)C1
